Columns and labels:
Format in all cases: in vivo
mice in Forced Swim Test = experiment: Mouse Forced Swim Test; settings: male CD1 (ICR) mice; i.p. 2.5 mg/mL solution at 0.1 mL/10 g; test 10 minutes after injection; FIG. 3
Procedure: Mouse strain: Male Crl: CD1 (ICR) mice; Weight: 35-40 g; Quantity: 16 pieces
Group 1, placebo group: 8 mice, 4 mice per cage;
Group 2, NRB181 group: 8 mice, 4 mice per cage.
20.3.1 Preparation of placebo before experiment: 10% DMSO+saline.
20.3.2 Preparation of compound NRB181 before experiment: 10 mg of NRB181 was weighed and added to 4 mL of placebo, mixed well.
20.3.4 On the morning of the experimental day, all mice were weighed and then evenly divided into each group based on their weight, with 8 mice per group, for a total of 16 mice.
20.3.5 The mice were transferred to the behavioral laboratory and allowed to adapt for 3 hours.
20.3.6 Drug injection: mice of Group 1 received intraperitoneal injection of placebo at a dose of 0.1 mL/10 g; after Forced Swim Test of the mice in Group 1, mice in Group 2 were intraperitoneally injected with compound NRB181 at a dose of 0.1 mL/10 g.
Mice of Group 1 underwent Forced Swim Test in sequence 10 minutes after injection. The mice were placed in a glass jar (diameter 10 cm, height 25 cm; water depth 15 cm, water temperature 23° C.) and swam for 6 minutes. The first 2 minutes were the adaptation period, and the last 4 minutes were the experimental period; The software records the immobility time, swimming time, and climbing time of mice within 4 minutes. […]

[1] = tested on: LPS induced mouse depression model; experiment: LPS induced mouse depression model, Open Field Test; settings: gavage 2.5 mg/mL at 0.1 mL/10 g twice daily Day 1-4, test 6 hours after injection, FIGS. 6 and 7
Source text: (§1) Mice: Male Crl: CD1 (ICR) mice; 10-14 weeks old; Weight: 35-40 g; Quantity: 40 pieces
(§2) Group 1, placebo+saline group: 10 mice; divided into 2 cages, 5 mice per cage.
(§3) Group 2, placebo+lipopolysaccharide (LPS) group: 10 mice; divided into 2 cages, 5 mice per cage.
(§4) Group 3, compound NRB181+saline group: 10 mice; divided into 2 cages, 5 mice per cage.
(§5) Group 4, compound NRB181+lipopolysaccharide (LPS) group: 10 mice; divided into 2 cages, 5 mice per cage.
(§6) 21.3.1 Preparation of placebo before experiment: 0.5% CMC sodium+1% Tween80+saline. In a clean bench, 4 tubes of 40 mL placebo were prepared using pyrogen-free centrifuge tubes and ultrapure water, totaling 160 mL, ensuring the absence of endotoxins (LPS). Sterile and endotoxin free centrifuge tubes were used to divide […] of placebo into 4 mL/tube, for a total of 30 tubes, and stored at 4° C. for future use.
LPS with a purity of >98% was required 3.2 mg of LPS was accurately weighed and dissolved in 40 mL of placebo to prepare a sterile solution of 0.08 mg/mL. […]
21.3.13 On the afternoon of the Day 4 of the experiment, 6 hours after mice in Group 1 were injected with saline, an Open Field Test was conducted on each group starting from Group 1. Relevant parameters were recorded, and then the mice in each group were returned to their respective home cages.

[2] = tested on: LPS induced mouse depression model; experiment: LPS induced mouse depression model, Forced Swim Test; settings: gavage 2.5 mg/mL at 0.1 mL/10 g twice daily Day 1-4, test 24 hours after injection, FIG. 5
Source text: as §1, §2, §3, §4, §5, §6
(§7) LPS with a purity of >98% was required 3.2 mg of LPS was accurately weighed and dissolved in 40 mL of placebo to prepare a sterile solution of 0.08 mg/mL. After thorough mixing, the solution was divided into sterile and endotoxin-free centrifuge tubes, 4 mL per tube. […]
21.3.15 On the Day 5 of experiment, 24 hours after mice of Group 1 were injected with saline the day before, a Forced Swim Test was conducted on each group of mice starting from Group 1, and the immobility time of each mouse was recorded.

[3] = tested on: LPS induced mouse depression model; experiment: LPS induced mouse depression model, corticosterone level; settings: gavage 2.5 mg/mL at 0.1 mL/10 g twice daily Day 1-4, blood collected Day 5, FIG. 8
Source text: as §1, §2, §3, §4, §5, §6
as §7, with “tube. The LPS solution needed for the next day was stored at 4° C. (3 tubes), while the rest was frozen at −20° C. for future use.” for “tube.”

## C[C@H](NC(=O)CNC(=O)c1cc(Cl)ccn1)c1c(F)cccc1F [NRB181]
Mice in Forced Swim Test
  time of despair (immobility time) in Forced Swim Test: significantly reduce
[1]
  activity of mice in the Open Field Test (number of line crossings, total distance traveled): significantly increased the activity
[2]
  despair time (immobility time) in the Forced Swim Test: significantly reduce the despair time
[3]
  expression level of corticosterone: significantly reduce the expression level of corticosterone
